Laboratory results from ChEMBL document CHEMBL5126575, “Synthesis of a new series of quinoline/pyridine indole-3-sulfonamide hybrids as selective carbonic anhydrase IX inhibitors” (Bioorg Med Chem Lett, 2022).

What was measured:
Carbonic anhydrase 2 = Carbonic anhydrase 2 (Homo sapiens, UniProt P00918); experiment: Inhibition of human carbonic anhydrase 2 by stopped flow CO2 assay
Carbonic anhydrase 1 = Carbonic anhydrase 1 (Homo sapiens, UniProt P00915); experiment: Inhibition of human carbonic anhydrase 1 by stopped flow CO2 assay
Carbonic anhydrase 12 = Carbonic anhydrase 12 (Homo sapiens, UniProt O43570)
Description: Inhibition of human carbonic anhydrase 12 by stopped flow CO2 assay

Carbonic anhydrase 9 = Carbonic anhydrase 9 (Homo sapiens, UniProt Q16790); experiment: Inhibition of human carbonic anhydrase 9 by stopped flow CO2 assay

Sequence of Carbonic anhydrase 12 (O43570 whole entry): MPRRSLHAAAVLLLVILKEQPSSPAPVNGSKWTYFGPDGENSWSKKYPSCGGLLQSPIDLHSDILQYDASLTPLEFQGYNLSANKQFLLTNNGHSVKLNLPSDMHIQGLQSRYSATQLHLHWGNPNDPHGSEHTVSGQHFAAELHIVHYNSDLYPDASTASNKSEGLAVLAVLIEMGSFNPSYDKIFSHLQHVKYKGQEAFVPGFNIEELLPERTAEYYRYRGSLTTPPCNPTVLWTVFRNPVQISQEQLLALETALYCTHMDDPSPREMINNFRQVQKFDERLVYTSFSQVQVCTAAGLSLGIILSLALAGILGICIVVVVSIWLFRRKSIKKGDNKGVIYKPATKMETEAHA
Sequence of Carbonic anhydrase 1 (P00915 whole entry): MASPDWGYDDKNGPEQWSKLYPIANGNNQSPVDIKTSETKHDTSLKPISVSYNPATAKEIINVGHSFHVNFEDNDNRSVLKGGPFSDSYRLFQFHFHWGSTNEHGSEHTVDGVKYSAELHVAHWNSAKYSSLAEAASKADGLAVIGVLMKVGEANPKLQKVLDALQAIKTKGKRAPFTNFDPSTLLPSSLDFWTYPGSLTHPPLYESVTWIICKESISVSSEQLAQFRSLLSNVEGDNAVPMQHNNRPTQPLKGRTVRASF

Compound | Ki (Carbonic anhydrase 2) [µM] | Ki (Carbonic anhydrase 1) [µM] | Ki (Carbonic anhydrase 12) [µM] | Ki (Carbonic anhydrase 9) [µM]
COc1ccc(-c2cc(C(=O)Nc3ccc4c(c3)c(S(N)(=O)=O)cn4C)c3ccccc3n2)cc1OC | > 100 | > 100 | > 100 | 69.3
CCn1cc(S(N)(=O)=O)c2cc(NC(=O)c3cc(-c4cc(Cl)cc(Cl)c4)nc4ccc(OC)cc34)ccc21 |  | > 100 |  | 4.23
CCn1cc(S(N)(=O)=O)c2cc(NC(=O)c3cc(-c4ccccc4)nc4ccc(OC)cc34)ccc21 | > 100 | > 100 | > 100 | 40.2
CCn1cc(S(N)(=O)=O)c2cc(NC(=O)c3cc(-c4ccc(Cl)cc4)nc4ccccc34)ccc21 |  | > 100 |  | 5.56
CCn1cc(S(N)(=O)=O)c2cc(NC(=O)c3cc(-c4ccc(OC)cc4OC)nc4ccc(OC)cc34)ccc21 |  | > 100 | > 100 | 59.5
CCn1cc(S(N)(=O)=O)c2cc(NC(=O)c3cc(-c4ccccc4)nc4ccccc34)ccc21 | > 100 | > 100 | > 100 | > 100
CCn1cc(S(N)(=O)=O)c2cc(NC(=O)c3cc(-c4ccc(OC)c(OC)c4)nc4ccccc34)ccc21 | > 100 | > 100 | > 100 | 35.8
CCn1cc(S(N)(=O)=O)c2cc(NC(=O)c3cc(-c4ccccc4Cl)nc4ccccc34)ccc21 |  | > 100 |  | 1.57
CCn1cc(S(N)(=O)=O)c2cc(NC(=O)c3cc(-c4ccccc4C)nc4ccc(OC)cc34)ccc21 |  | > 100 |  | 8.65
CCn1cc(S(N)(=O)=O)c2cc(NC(=O)c3cc(-c4ccccc4OC)nc4ccc(OC)cc34)ccc21 | > 100 | > 100 | > 100 | 26.7
CCn1cc(S(N)(=O)=O)c2cc(NC(=O)c3cc(-c4ccc(Cl)cc4Cl)nc4ccccc34)ccc21 |  | > 100 |  | 1.47
CCn1cc(S(N)(=O)=O)c2cc(NC(=O)c3cc(-c4ccc5c(c4)OCO5)nc4ccccc34)ccc21 |  | > 100 |  | 7.51

Further lines, results first:

Ki (Carbonic anhydrase 2) [µM] | Ki (Carbonic anhydrase 1) [µM] | Ki (Carbonic anhydrase 12) [µM] | Ki (Carbonic anhydrase 9) [µM] | Compound
> 100 | > 100 | > 100 | 19.8 | CCn1cc(S(N)(=O)=O)c2cc(NC(=O)c3ccnc(N)c3)ccc21
> 100 | > 100 |  | 5.93 | Cn1cc(S(N)(=O)=O)c2cc(NC(=O)c3ccnc(Cl)c3)ccc21
 | > 100 |  | 8.21 | CCn1cc(S(N)(=O)=O)c2cc(NC(=O)c3ccnc(Br)c3)ccc21
> 100 | > 100 |  | 8.16 | Cn1cc(S(N)(=O)=O)c2cc(NC(=O)c3ccnc(Br)c3)ccc21
> 100 | > 100 | > 100 | 82.4 | Cn1cc(S(N)(=O)=O)c2cc(NC(=O)c3cc(-c4ccccc4)nc4ccccc34)ccc21
 | > 100 |  | 8.78 | CCn1cc(S(N)(=O)=O)c2cc(NC(=O)c3cc(Cl)nc(Br)c3)ccc21
> 100 | > 100 |  | 5.33 | CCn1cc(S(N)(=O)=O)c2cc(NC(=O)c3ccnc(O)c3)ccc21
 | > 100 | > 100 | 18.5 | Cn1cc(S(N)(=O)=O)c2cc(NC(=O)c3cc(-c4ccc(Cl)cc4)nc4ccccc34)ccc21
> 100 | > 100 | > 100 | 45 | COc1ccc2nc(-c3ccccc3)cc(C(=O)Nc3ccc4c(c3)c(S(N)(=O)=O)cn4C)c2c1
> 100 | > 100 | > 100 | 38.9 | COc1ccc2nc(-c3ccccc3OC)cc(C(=O)Nc3ccc4c(c3)c(S(N)(=O)=O)cn4C)c2c1
> 100 | > 100 |  | 9.05 | Cn1cc(S(N)(=O)=O)c2cc(NC(=O)c3ccnc(O)c3)ccc21
 | > 100 |  | 5.93 | CCn1cc(S(N)(=O)=O)c2cc(NC(=O)c3ccnc(Cl)c3)ccc21
> 100 | > 100 | > 100 | 34.6 | Cn1cc(S(N)(=O)=O)c2cc(NC(=O)c3ccnc(N)c3)ccc21
> 100 | > 100 | > 100 | 15.9 | Cn1cc(S(N)(=O)=O)c2cc(NC(=O)c3cc(Cl)nc(Br)c3)ccc21
> 100 | > 100 | > 100 | 21.6 | CCn1cc(S(N)(=O)=O)c2cc(NC(=O)c3ccncc3)ccc21
 | > 100 | > 100 | 16.3 | COc1ccc2nc(-c3ccccc3C)cc(C(=O)Nc3ccc4c(c3)c(S(N)(=O)=O)cn4C)c2c1
